Results on one compound are retold here after patent US4112101A, “N-(Pyridyl)-1H-(or 2H) tetrazole-5-carboxamide derivatives for the prevention of immediate type hypersensitivity reactions” (American Home Products Corporation, priority 1977, dated 1978).

Counter-ions that a name gives are not always drawn.

Usually % inhibition stands for the drop in the measured response relative to a control, in per cent. A high value points to strong suppression.

The test system of the test is passive cutaneous anaphylaxis using rat homocytotropic antibody. The test is described as follows: rat passive cutaneous anaphylaxis test (rat PCA test). The format is in vivo. As for the experimental part:
The technique employed to establish the anti-allergic activity of the 1H-tetrazole-5-carboxamide derivatives is reported in Immunology, vol. 16, pp. 749-760 (1969) and involves four male Charles River rats (200-250 grams body weight) per group to provide a control, a host for administration of a standard anti-allergic compound (disodium cromoglycate) and animals for the test compound. The rats were injected intracutaneously on their shaved backs with sera from rats immunized with egg albumin and pertussis vaccine. Twenty-four hours after the initial injections, the test compound is administered intraperitoneally or orally at a dosage level of 200 milligrams per kilogram host body weight or less. Five minutes later one milliliter of a 0.5 percent solution of Evans blue dye and 8 milligrams of egg albumin is injected intravenously. After 40 minutes, the animal is sacrificed and the bleb size on its back is measured. The mean bleb size for the animals administered the test compound is calculated and the percent inhibition is determined by comparison with the control animal.
In other words, the compounds of this invention block the release of mediators commonly resulting from the antigen-antibody reaction as exemplified in a passive cutaneous anaphylaxis test (PCA) using rat homocytotropic antibody -- a known correlate of human reaginic antibody.

`O=C(Nc1ccccn1)c1nn[nH]n1` [Example 1, N-(2-Pyridinyl)-1H-tetrazole-5-carboxamide, sodium salt]: the “% inhibition” value reads like this: (intraperitoneal (i.p.), dose 1.0 mg/kg) 82.6%; (intraperitoneal (i.p.), dose 10 mg/kg) 99.0%; (intraperitoneal (i.p.), dose 100 mg/kg) 72.5%; (intraperitoneal (i.p.), dose .01 mg/kg) 24.8%; (intraperitoneal (i.p.), dose .1 mg/kg) 41.9%; (oral (p.o.), dose 1 mg/kg) 62.6%. Also, the “% inhibition” value amounted to 94.8% (oral (p.o.), dose 10 mg/kg); 100.0% (oral (p.o.), dose 100 mg/kg); 40.4% (oral (p.o.), dose .01 mg/kg); 25.1% (oral (p.o.), dose .1 mg/kg).
